Laboratory results reported in article PMC9967645, “OAT3 Participates in Drug–Drug Interaction between Bentysrepinine and Entecavir through Interactions with M8—A Metabolite of Bentysrepinine—In Rats and Humans In Vitro” (Molecules, 2023).
Values joined by “and” are separate entries in the source; they are usually repeats but may differ in a detail not shown here. Equal values may be shown once. Read-outs that look alike come from different tables or passages of the source.

Tests used:
[1] = Renal excretion study in rats (cumulative urinary excretion, renal clearance); type: in vivo, Sprague–Dawley (SD) rats; conditions: for CL renal: Sprague-Dawley, rat, urine, iv, read-out: CLR (renal clearance) (converted)
Experimental: To investigate the effects of PRO on the renal excretion of Y101 and its metabolites, rats received an intravenous dose of Y101 (25 mg/kg) or Y101 + PRO (25 mg/kg for Y101 and 100 mg/kg for PRO) via the caudal vein. In order to verify the DDI between Y101 and ETV in renal excretion, rats received an intravenous dose of Y101 (25 mg/kg) and/or ETV (0.06 mg/kg) by caudal vein.
[…] Subsequently, urine samples were stored at −70 °C until analysis. The cumulative urinary excretion and renal clearance (CLR) were calculated as previously described.
(§1) Biological samples were prepared as previously described.

hOAT3 = molecular target: T1, hOAT3 (Homo sapiens, UniProt Q8TCC7); test: In vitro uptake assay in hOAT3-HEK293 cells; conditions: M8 10 µM; for inhibition of the uptake of ETV in hOAT3-HEK293 cells / substrate of hOAT3 (uptake in hOAT3-HEK293 vs mock-HEK293 cells): Y101 2.0 µM; for substrate of hOAT3 (uptake in hOAT3-HEK293 vs mock-HEK293 cells): ES 10 µM
T1 sequence (Q8TCC7 1-542): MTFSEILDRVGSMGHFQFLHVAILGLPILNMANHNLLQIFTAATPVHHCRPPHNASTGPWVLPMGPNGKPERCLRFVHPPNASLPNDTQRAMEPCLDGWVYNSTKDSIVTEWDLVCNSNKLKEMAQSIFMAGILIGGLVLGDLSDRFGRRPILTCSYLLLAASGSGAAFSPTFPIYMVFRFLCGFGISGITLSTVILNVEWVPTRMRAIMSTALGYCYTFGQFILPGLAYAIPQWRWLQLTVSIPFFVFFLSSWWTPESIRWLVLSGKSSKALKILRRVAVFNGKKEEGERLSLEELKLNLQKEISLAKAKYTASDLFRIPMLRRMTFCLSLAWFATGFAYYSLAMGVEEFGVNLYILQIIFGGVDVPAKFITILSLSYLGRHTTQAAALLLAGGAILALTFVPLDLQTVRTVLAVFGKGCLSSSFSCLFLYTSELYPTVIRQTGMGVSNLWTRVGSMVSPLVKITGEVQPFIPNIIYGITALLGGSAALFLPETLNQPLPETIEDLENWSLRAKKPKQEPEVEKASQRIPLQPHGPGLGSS
Experimental: The hOAT1-HEK293, hOAT3-HEK293 and mock cells were cultured in Dulbecco modified Eagle medium (DMEM) containing 10% fetal bovine serum (FBS) and 1% penicillin/streptomycin in an atmosphere of 5% CO2 air at 37 °C. The HEK293 cells were plated on 24-well plates at a density of 5 × 10^5 cells/well. […] Uptake assay was initiated by adding 1 mL of the transporter buffer containing Y101, M8, ETV or probe substrate. Following incubation with gentle shaking, the uptake was terminated at designated time by removing the transporter buffer and washing cells three times with 1 mL of ice-cold HBSS. Next, substrates of Y101, M8, ETV, PAH and ES in cell monolayer were released by lysing the cells with 0.3 mL of 0.1% Triton X-100 for 2 h and determined by liquid chromatography–tandem mass spectrometry (LC–MS/MS). In the time-course uptake assay, Y101 (2.0 µM) and M8 (10 µM) in the presence or absence of PRO (100 µM) were measured in hOAT1-HEK293, hOAT3-HEK293 and mock cells. The concentration-dependent uptake of M8 was determined in hOAT3-HEK293 cells, and incubation time (5 min) was optimized. The uptake of M8 (10 µM) with or without ETV was examined in hOAT3-HEK293 cells. The uptake of ETV (10 µM) with or without Y101 or M8 was also measured in hOAT1-HEK293 and hOAT3-HEK293 cells, respectively. Furthermore, PAH and ES at concentrations of 10 µM were used as positive control in hOAT1-HEK293 and hOAT3-HEK293 cells, respectively. Protein concentrations were measured by the bicinchoninic acid procedure (Solarbio, Beijing, China) using bovine serum albumin as the standard.
Biological samples were prepared as previously described. Aliquots (50 µL) of urine, plasma, kidney homogenates, or cell lysates were individually mixed with 150 µL methanol and 50 µL working solution of internal standard (acetaminophen or bestatin), followed by vortexing for 1 min and centrifuging at 13,800 g for 10 min. […] The resulting supernatant (1 µL) was subjected to LC-MS/MS for the assessment of Y101, M8, M9 and ETV, respectively. […] The concentrations of ETV, Y101, M8 and M9 were determined by an AB QTRAP 5500 LC–MS/MS System (Foster City, CA, USA) as previously described. Chromatographic separation was achieved on an Infinitylab Poroshell 120 EC-C18 (50 mm × 2.1 mm, 2.7 µm, Agilent Technology Inc., CA, USA) at 40 °C. The mobile phase consisted of formic acid-acetonitrile (0.05:100, v/v) and a mixture of 1 mmol-ammonium acetate-acetonitrile-formic acid (95:5:0.05, v/v/v) at a flow rate of 0.3 mL/min. […] Analyst1.5.2 software was used for data processing and analysis.

[2] = Pharmacokinetic study in rats, intravenous Y101 with or without PRO; type: in vivo, Sprague–Dawley (SD) rats; conditions: for Tmax / half-life / AUC(0-inf) / AUC(0-t) / Cmax / Vd / clearance / C0: male, Sprague-Dawley, rat, plasma, iv, 25 mg/kg; for Tmax / half-life / AUC(0-inf) / AUC(0-t) / Cmax / Vd / C0: n = 3; for clearance: n = 3, read-out: CLp (plasma clearance) (converted)
Experimental: The effect of PRO on the pharmacokinetics of Y101 was studied in rats. Male rats surgically prepared with indwelling jugular cannula were randomly divided into two groups (n = 3): (1) Y101 alone (25 mg/kg) as a control and (2) Y101 + PRO (25 mg/kg for Y101 and 100 mg/kg for PRO) as an experimental group. The intravenous dose of Y101 was prepared as previously described. Both Y101 and PRO were injected by caudal vein to rats at volume of 5 mL/kg.
Following administration, serial blood samples were collected through jugular vein pre-dose (0 h) and post-dose at 0.033, 0.083, 0.25, 0.5, 1, 1.5, 2, 3, 4, 6, 9, 12, 24 and 30 h in heparinized Eppendorf tubes. The resulting samples were centrifuged at 13,800× g at 4 °C for 5 min to obtain plasma. All plasma samples were stored at −70 °C until analysis.
as §1
Non-compartmental analysis with Phenix WinNonlin (version 8.1; Pharsight, Certara Corp, Princeton, NJ) was used to calculate the main pharmacokinetic parameters of ETV, Y101, M8 and M9 for individual rats. The observed values were reported for maximum concentration (Cmax) and time to reach maximum concentration (Tmax), while the area under the plasma concentration–time curve (AUC) was calculated via the default trapezoidal-up, log-trapezoidal-down approach.

[3] = i.v. Y101 25 mg/kg + ETV 0.06 mg/kg
[4] = i.v. Y101 25 mg/kg + PRO 100 mg/kg vs Y101 alone
[5] = i.v. Y101 25 mg/kg + PRO 100 mg/kg
[6] = 25 mg/kg, i.v. Y101 25 mg/kg + PRO 100 mg/kg
[7] = 25 mg/kg, i.v. Y101 25 mg/kg alone (Table 1, control of PRO study)
[8] = 25 mg/kg, i.v. Y101 25 mg/kg alone (Table 2, control of ETV study)
[9] = i.v. Y101 25 mg/kg + ETV 0.06 mg/kg, at 30 h post-dose
[10] = i.v. Y101 25 mg/kg + PRO 100 mg/kg, 0 to 48 h

Compound | CL renal [1, 3] [mL/min/kg] | half-life [2, 5] [min] | AUC(0-inf) [2, 5] [ng·h/mL] | AUC(0-t) [2, 5] [ng·h/mL] | AUC(0-inf) ([2]; i.v. Y101 25 mg/kg alone) [ng·h/mL] | AUC(0-t) ([2]; i.v. Y101 25 mg/kg alone) [ng·h/mL] | half-life ([2]; i.v. Y101 25 mg/kg alone) [min] | CL renal [1, 6] [mL/min/kg] | CL renal [1, 7] [mL/min/kg] | CL renal [1, 8] [mL/min/kg] | cumulative excretion in the urine [1, 9] | cumulative urinary excretion [1, 10] [%] | inhibition of the uptake of ETV in hOAT3-HEK293 cells (hOAT3; ETV 10 µM) | substrate of hOAT3 (uptake in hOAT3-HEK293 vs mock-HEK293 cells) (hOAT3) | further results
C=C1[C@H](CO)[C@@H](O)C[C@@H]1n1cnc2c(=O)[nH]c(N)nc21 [ETV, entecavir] | 33.3 |  |  |  |  |  |  |  |  |  |  |  |  |  | CL renal ([1]; 0.06 mg/kg, i.v. ETV 0.06 mg/kg alone): 36.2 mL/min/kg; cumulative excretion in urine ([1]; i.v. ETV 0.06 mg/kg alone, at 30 h post-dose): 33.4 ± 1.55%; inhibition of the uptake of M8 in hOAT3-HEK293 cells (hOAT3; PRO 100 µM, ETV 10 µM): inhibited the uptake of M8
CN(C)CCOc1ccc(CC(NC(=O)c2ccccc2)C(=O)O)cc1 (stereo not shown) [M8] | 106 | 207 | 21900 | 21900 | 8360 | 8300 | 244 | 82.7 | 100 | 115 | 59.7 ± 5.78 % of the dose | 56.3 ± 3.00 | not inhibited | substrate of hOAT3 | elevation in AUC value on co-administration of PRO [2, 4]: 163%; increase in Cmax value on co-administration of PRO [2, 4]: 2.6 fold; Tmax [2, 5]: 30 min; Cmax [2, 5]: 10100 ng/mL; Cmax ([2]; i.v. Y101 25 mg/kg alone): 3890 ng/mL; Tmax ([2]; i.v. Y101 25 mg/kg alone): 40 min; cumulative urinary excretion ([1]; i.v. Y101 25 mg/kg alone, at 48 h post-dose): 68.1 ± 6.97 % of the dose and 68.1 % of the dose
CN(C)CCOc1ccc(C[C@H](NC(=O)c2ccccc2)C(=O)N[C@H](CO)Cc2ccccc2)cc1.Cl [Y101, N-[N-benzoyl-O-(2-dimethylaminoethyl)-l-tyrosyl]-l-phenylalaninol hydrochloride] | 7.93 | 42.4 | 2030 | 2020 | 2860 | 2840 | 47.9 | 5.28 | 6.1 | 7.18 | 4.48 ± 0.742 % of the dose | 3.59 ± 0.526 | not inhibited | not a substrate of hOAT1 or hOAT3 | Vd [2, 5]: 12.5 L/kg; clearance [2, 5]: 207 mL/min/kg; C0 [2, 5]: 15800 ng/mL; C0 ([2]; i.v. Y101 25 mg/kg alone): 16000 ng/mL; Vd ([2]; i.v. Y101 25 mg/kg alone): 10.2 L/kg; clearance ([2]; i.v. Y101 25 mg/kg alone): 149 mL/min/kg; cumulative urinary excretion ([1]; i.v. Y101 25 mg/kg alone, at 48 h post-dose, 25 mg/kg): 4.16 ± 0.843 % of the dose and 4.16 % of the dose
